How the values were obtained:
[1] = wn = mass fraction of the nth substance listed; settings: 298.15 K, 101 kPa, Liquid; for viscosity: Capillary tube (Ostwald / Ubbelohde) method; for speed of sound: Sing-around technique in a fixed-path interferometer; for mass density: Vibrating tube method
[2] = refractive index (Na D-line) (dimensionless); wn = mass fraction of the nth substance listed; settings: 298.15 K, 101 kPa, Liquid, Standard Abbe refractometry

O=[N+]([O-])[O-].O=[N+]([O-])[O-].[Ba+2] [barium dinitrate] + O
Settings | mass density, [1] [kg/m3] | refractive index, [2] | speed of sound, [1] [m/s] | viscosity, [1] [mPa·s]
w1 = 0.01 | 997.37 | 1.3327 | 1512.7 | 0.904
w1 = 0.03 | 998.48 | 1.3334 | 1516.4 | 0.91
w1 = 0.05 | 999.56 | 1.3342 | 1519.3 | 0.916
